Data on 19 compounds can be found in patent publication US8188078B2 (Sanofi-Aventis, priority 2007, dated 2012).

One experiment concerns the target T1, c-MET (Homo sapiens, UniProt P08581).
T1 construct: The recombinant DNA His-Tev-MET (956-1390) in pFastBac(Invitrogen); His (N, cleaved yes); Tev (TEV protease site) (N, cleaved yes); made in house; host or cells: SF21 insect cells (baculovirus, pFastBac)
The experiment can be described thus: Test A: HTRF Met test in 96-well format. In kind it is biochemical. An outline of the steps:
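The kinase was the Sf21-expressed MET cytoplasmic domain (956–1390), His tag removed, used at 5 nM with compound (0.17 nM–10 µM, 3% DMSO) in 10 mM MOPS pH 7.4. Poly-GAT 1 µg/ml, 10 µM ATP and 5 mM MgCl2 reacted 10 min at RT. After an EDTA stop, phosphotyrosine was detected by HTRF (665/620 ratio).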
(In general: Time-resolved FRET reads energy transfer from a long-lived donor to a nearby acceptor.)

The next experiment deals with RON (Homo sapiens, UniProt Q04912). Description: Test B: HTRF RON test in 96-well format. The format is biochemical. The protocol: B) HTRF RON Test in 96-Well Format
The inhibitory potency (IC50) of molecules on the enzymatic activity of kinase phosphorylation RON is determined by the HTRF technique. The activity of the kinase is evaluated by measuring the phosphorylation of the substrate polyGAT by the enzyme, in the presence of ATP.
Final RON 5 nM is incubated in the presence of the molecule to be tested (for a final concentration range from 0.17 nM to 10 μM, final DMSO 3%) in buffer MOPS 10 mM pH 7, DTT 1 mM, Tween 20 0.01%. This pre-incubation is performed in 96 half-well black plates in a volume of 35 μl for 30 minutes at room temperature.
The reaction is initiated by adding 15 μl of a mixture of substrates constituted of biotinylated poly-(GAT) 1 μg/ml final and ATP 10 μM final in the presence of MgCl2 5 mM final for a final volume of 50 μl.
After incubation for 30 min at room temperature, the reaction is stopped with 30 μl of a mixture of Hepes 100 mM final pH 7, potassium fluoride 400 mM final, BSA 0.1% and EDTA 133 mM in the presence of 80 ng per well of antibodies Streptavidin ITS-XL665 Cis-Bio Int. and 18 ng per well of anti-phosphotyrosine PT66 labelled with europium cryptate.
After incubation for 2 hours at room temperature, reading is carried out at 2 wavelengths 620 nm and 665 nm in a Genios TECAN reader for the TRACE/HTRF technique and the percentage inhibition is calculated according to the 665/620 ratios.

The subject of another experiment is MKN45 cells. The experiment can be described thus: Test D: cellular proliferation by 14C-thymidine pulse, MKN45 cells. The format is cell-based. Particulars: cell line not stated (HCT116 or MKN45). In a few lines: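 MKN45 cells (7500/well, RPMI + 10% foetal calf serum) treated with 10 concentrations, 10000 to 0.3 nM in 3-fold steps, duplicate. 14C-thymidine (0.1 μCi/well) added at 72 h; incorporation counted after 24 h pulse, 96 h total treatment.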

Setting [1] is: cellular proliferation by 14C-thymidine pulse.
[2] abbreviates: Homo sapiens, MKN-45, cellular proliferation by 14C-thymidine pulse.

Counter-ions that a name gives are not always drawn.

Chain of RON (Q04912 25-1400): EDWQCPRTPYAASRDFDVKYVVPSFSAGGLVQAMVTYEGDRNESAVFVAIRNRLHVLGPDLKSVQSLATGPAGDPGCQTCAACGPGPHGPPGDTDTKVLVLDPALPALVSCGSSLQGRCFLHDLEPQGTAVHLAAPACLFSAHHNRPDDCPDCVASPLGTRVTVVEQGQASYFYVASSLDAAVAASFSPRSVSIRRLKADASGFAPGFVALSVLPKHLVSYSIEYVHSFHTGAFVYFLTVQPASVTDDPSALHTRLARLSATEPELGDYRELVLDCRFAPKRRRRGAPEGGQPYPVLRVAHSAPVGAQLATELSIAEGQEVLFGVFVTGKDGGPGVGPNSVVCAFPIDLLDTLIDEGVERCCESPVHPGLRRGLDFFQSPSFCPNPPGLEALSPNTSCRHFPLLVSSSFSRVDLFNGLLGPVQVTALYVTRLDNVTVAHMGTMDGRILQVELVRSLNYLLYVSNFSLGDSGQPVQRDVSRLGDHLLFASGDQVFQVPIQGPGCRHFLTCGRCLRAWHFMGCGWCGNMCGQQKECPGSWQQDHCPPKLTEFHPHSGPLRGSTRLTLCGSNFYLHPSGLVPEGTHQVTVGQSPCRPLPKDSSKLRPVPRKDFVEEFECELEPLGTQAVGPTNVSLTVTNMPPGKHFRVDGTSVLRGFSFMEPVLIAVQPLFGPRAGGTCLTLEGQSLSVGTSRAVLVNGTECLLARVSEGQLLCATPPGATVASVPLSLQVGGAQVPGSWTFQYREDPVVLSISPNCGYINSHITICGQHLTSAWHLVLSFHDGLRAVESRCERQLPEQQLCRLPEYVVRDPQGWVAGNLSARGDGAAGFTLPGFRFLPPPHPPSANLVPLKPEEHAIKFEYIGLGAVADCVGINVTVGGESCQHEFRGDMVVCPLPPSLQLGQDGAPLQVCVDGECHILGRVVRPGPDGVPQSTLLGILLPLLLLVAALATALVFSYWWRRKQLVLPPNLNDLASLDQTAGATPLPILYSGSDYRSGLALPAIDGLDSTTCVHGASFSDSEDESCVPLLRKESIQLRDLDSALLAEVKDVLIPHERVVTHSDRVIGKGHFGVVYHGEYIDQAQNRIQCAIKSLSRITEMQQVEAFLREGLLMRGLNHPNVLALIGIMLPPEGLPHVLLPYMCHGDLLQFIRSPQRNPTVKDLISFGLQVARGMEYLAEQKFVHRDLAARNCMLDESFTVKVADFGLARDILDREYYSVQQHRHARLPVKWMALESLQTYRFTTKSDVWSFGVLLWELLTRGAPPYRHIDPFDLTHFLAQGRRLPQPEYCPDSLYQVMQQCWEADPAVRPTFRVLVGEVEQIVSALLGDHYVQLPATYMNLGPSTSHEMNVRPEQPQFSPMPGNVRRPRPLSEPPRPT
T1 sequence (P08581 956-1390): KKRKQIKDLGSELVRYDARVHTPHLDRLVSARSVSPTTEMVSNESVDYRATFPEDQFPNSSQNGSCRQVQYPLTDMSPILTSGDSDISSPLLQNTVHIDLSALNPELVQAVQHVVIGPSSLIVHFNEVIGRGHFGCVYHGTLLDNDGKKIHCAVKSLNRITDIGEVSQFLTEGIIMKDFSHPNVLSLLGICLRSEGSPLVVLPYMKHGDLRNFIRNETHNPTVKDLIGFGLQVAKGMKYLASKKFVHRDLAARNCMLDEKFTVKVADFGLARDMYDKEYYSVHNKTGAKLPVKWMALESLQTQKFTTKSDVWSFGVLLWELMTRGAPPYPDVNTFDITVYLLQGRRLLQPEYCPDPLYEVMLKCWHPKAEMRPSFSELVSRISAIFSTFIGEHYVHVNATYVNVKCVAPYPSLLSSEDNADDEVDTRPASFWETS

Usually IC50 stands for the point on the concentration scale where inhibition reaches its midpoint. A higher IC50 goes with a need for much substance. With `CC(Oc1ccc2nc(NC(=O)NCCN3CCOCC3)sc2c1)c1c(Cl)ccc(F)c1Cl` (single isomer, unassigned) [Example 25, 1-{6-[(1R*)-(2,6-dichloro-3-fluorophenyl)ethoxy]-1,3-benzothiazol-2-yl}-3-(2-morpholin-4-ylethyl)urea], the IC50 against c-MET is less than 0.1 µM; at RON, less than 0.5 µM; with MKN45 cells (setting [1]) it was less than 0.5 µM.

As for `C[C@@H](Oc1cc2sc(NC(=O)NCCN3CCOCC3)nc2cc1F)c1c(Cl)ccc(F)c1Cl` (single isomer, unassigned) [Example 32, 1-{6-[(1R)-(2,6-dichloro-3-fluorophenyl)ethoxy]-5-fluoro-1,3-benzothiazol-2-yl}-3-(2-morpholin-4-ylethyl)urea or 1-{6-[(1S)-(2,6-dichloro-3-fluorophenyl)ethoxy]-5-fluoro-1,3-benzothiazol-2-yl}-3-(2-morpholin-4-ylethyl)urea], the IC50 was less than 0.1 µM against c-MET, less than 0.5 µM at RON and 0.5 to 10 µM in the experiment with MKN45 cells (setting [1]).

Turning to `C[C@@H](Oc1cc2sc(NC(=O)NCCN3CCOCC3)nc2cc1F)c1c(Cl)ccc(F)c1Cl` (single isomer, unassigned) [Example 33, 1-{6-[(1R)-(2,6-dichloro-3-fluorophenyl)ethoxy]-5-fluoro-1,3-benzothiazol-2-yl}-3-(2-morpholin-4-ylethyl)urea or 1-{6-[(1S)-(2,6-dichloro-3-fluorophenyl)ethoxy]-5-fluoro-1,3-benzothiazol-2-yl}-3-(2-morpholin-4-ylethyl)urea], the IC50 against c-MET was less than 0.1 µM; against RON, less than 0.5 µM; in the experiment on MKN45 cells (setting [1]) it was 0.5 to 10 µM.

Consider `CC(Oc1cc2sc(NC(=O)NCCO)nc2cc1F)c1c(Cl)ccc(F)c1Cl` (single isomer, unassigned) [Example 99, 1-{6-[(1R*)-1-(2,6-dichloro-3-fluorophenyl)ethoxy]-5-fluoro-1,3-benzothiazol-2-yl}-3-(2-hydroxyethyl)urea], for which the values for the IC50 on c-MET, against RON and with MKN45 cells (setting [2]) were less than 0.1 µM, less than 0.5 µM and less than 0.5 µM, respectively.

For `CCN1CCN(CCNC(=O)Nc2nc3cc(F)c(OC(C)c4c(Cl)ccc(F)c4Cl)cc3s2)CC1` (single isomer, unassigned) [Example 101, 1-{6-[(1R*)-1-(2,6-dichloro-3-fluorophenyl)ethoxy]-5-fluoro-1,3-benzothiazol-2-yl}-3-[2-(4-ethylpiperazin-1-yl)ethyl]urea], the figures for the half-maximal inhibitory concentration (IC50) at c-MET, against RON and in the experiment with MKN45 cells (setting [2]) were less than 0.1 µM, less than 0.5 µM and less than 0.5 µM, respectively.

As to `CCN1CCN(CCNC(=O)Nc2nc3cc(F)c(OC(C)c4c(Cl)ccc(F)c4Cl)cc3s2)CC1` (single isomer, unassigned) [Example 102, 1-{6-[(1S*)-1-(2,6-dichloro-3-fluorophenyl)ethoxy]-5-fluoro-1,3-benzothiazol-2-yl}-3-[2-(4-ethylpiperazin-1-yl)ethyl]urea], the IC50 on c-MET was less than 0.1 µM; against RON, 0.5 to 10 µM; in the experiment on MKN45 cells (setting [1]) it was 0.5 to 10 µM.

On to `CC(Oc1ccc2nc(NC(=O)NCCN3CCN(C)CC3)sc2c1)c1c(F)ccc(Cl)c1Cl` (single isomer, unassigned) [Example 109, 1-{6-[(1R*)-1-(2,3-dichloro-6-fluorophenyl)ethoxy]-1,3-benzothiazol-2-yl}-3-[2-(4-methylpiperazin-1-yl)ethyl]urea], for which the IC50 is less than 0.1 µM at c-MET, less than 0.5 µM against RON and less than 0.5 µM with MKN45 cells (setting [2]).

Consider `CC(Oc1cc2sc(NC(=O)NCCN3CCOCC3)nc2cc1F)c1c(F)ccc(Cl)c1Cl` (single isomer, unassigned) [Example 112, 1-{6-[(1R*)-1-(2,3-dichloro-6-fluorophenyl)ethoxy]-5-fluoro-1,3-benzothiazol-2-yl}-3-[2-(morpholin-4-yl)ethyl]urea], for which the values for the half-maximal inhibitory concentration (IC50) against c-MET, at RON and in the experiment on MKN45 cells (setting [2]) were less than 0.1 µM, less than 0.5 µM and less than 0.5 µM, respectively.

On to `CC(Oc1cc2sc(NC(=O)NCCN3CCOCC3)nc2cc1F)c1c(F)ccc(Cl)c1Cl` (single isomer, unassigned) [Example 113, 1-{6-[(1S*)-1-(2,3-dichloro-6-fluorophenyl)ethoxy]-5-fluoro-1,3-benzothiazol-2-yl}-3-[2-(morpholin-4-yl)ethyl]urea], for which the IC50 is less than 0.1 µM on c-MET, 0.5 to 10 µM against RON and 0.5 to 10 µM in the experiment with MKN45 cells (setting [1]).

Take `CC(Oc1cc2sc(NC(=O)NCCN3CCN(C)CC3)nc2cc1F)c1c(F)ccc(Cl)c1Cl` (single isomer, unassigned) [Example 116, 1-{6-[(1R*)-1-(2,3-dichloro-6-fluorophenyl)ethoxy]-5-fluoro-1,3-benzothiazol-2-yl}-3-[2-(4-methylpiperazin-1-yl)ethyl]urea]: the IC50 against c-MET is less than 0.1 µM; on RON it was less than 0.5 µM; in the experiment with MKN45 cells (setting [2]), less than 0.5 µM.

Turning to `CC(Oc1cc2sc(NC(=O)NCCN3CCN(C)CC3)nc2cc1F)c1c(F)ccc(Cl)c1Cl` (single isomer, unassigned) [Example 117, 1-{6-[(1S*)-1-(2,3-dichloro-6-fluorophenyl)ethoxy]-5-fluoro-1,3-benzothiazol-2-yl}-3-[2-(4-methylpiperazin-1-yl)ethyl]urea], the IC50 on c-MET is less than 0.1 µM; against RON it was 0.5 to 10 µM; in the experiment on MKN45 cells (setting [1]), 0.5 to 10 µM.

As for `CC(Oc1cc2sc(NC(=O)NCCN3CCCC3)nc2cc1F)c1c(F)ccc(Cl)c1Cl` (single isomer, unassigned) [Example 119, 1-{6-[(1R*)-1-(2,3-dichloro-6-fluorophenyl)ethoxy]-5-fluoro-1,3-benzothiazol-2-yl}-3-[2-(pyrrolidin-1-yl)ethyl]urea], the IC50 on c-MET is less than 0.1 µM; on RON, 0.5 to 10 µM; in the experiment on MKN45 cells (setting [2]), less than 0.5 µM.

For `CC(Oc1ccc2nc(NC(=O)NCCN3CCCC3)sc2c1)c1c(F)ccc(Cl)c1Cl` (single isomer, unassigned) [Example 121, 1-{6-[(1R*)-(2,3-dichloro-6-fluorophenyl)ethoxy]-1,3-benzothiazol-2-yl}-3-[2-(pyrrolidin-1-yl)ethyl]urea], the IC50 against c-MET was less than 0.1 µM; against RON, less than 0.5 µM; in the experiment with MKN45 cells (setting [1]), less than 0.5 µM.

On to `CC(Oc1ccc2nc(NC(=O)NCCN3CCOCC3)[nH]c2c1)c1c(Cl)cccc1Cl` (stereo not drawn) [Example 2, 1-{6-[1-(2,6-dichlorophenyl)ethoxy]-1H-benzimidazol-2-yl}-3-(2-morpholin-4-ylethyl)urea], for which the IC50 against c-MET is less than 0.1 µM; on RON, 0.5 to 10 µM; in the experiment with MKN45 cells (setting [2]), 0.5 to 10 µM.

`CC(Oc1ccc2nc(NC(=O)NCCN3CCOCC3)[nH]c2c1)c1cc(F)ccc1Cl` (stereo not drawn) [Example 3, 1-{6-[1-(2-chloro-5-fluorophenyl)ethoxy]-1H-benzimidazol-2-yl}-3-(2-morpholin-4-ylethyl)urea]: the IC50 was less than 0.1 µM at c-MET, 0.5 to 10 µM against RON and 0.5 to 10 µM in the experiment on MKN45 cells (setting [2]).

Turning to `CC(Oc1ccc2nc(NC(=O)NCCN3CCOCC3)[nH]c2c1)c1c(Cl)ccc(F)c1Cl` (stereo not drawn) [Example 4, 4-{2-[({6-[1-(2,6-Dichloro-3-fluorophenyl)ethoxy]-1H-benzimidazol-2-yl}carbamoyl)amino]ethyl}morpholin-4-ium trifluoroacetate], the values for the IC50 against c-MET, against RON and in the experiment with MKN45 cells (setting [2]) were less than 0.1 µM, less than 0.5 µM and 0.5 to 10 µM, respectively.

Turning to `CC(Oc1cc2[nH]c(NC(=O)NCCN3CCOCC3)nc2cc1F)c1c(Cl)cccc1Cl` (stereo not drawn) [Example 5, 1-{6-[1-(2,6-dichlorophenyl)ethoxy]-5-fluoro-1H-benzimidazol-2-yl}-3-(2-morpholin-4-ylethyl)urea], the figures for the half-maximal inhibitory concentration (IC50) against c-MET, against RON and in the experiment on MKN45 cells (setting [2]) were less than 0.1 µM, less than 0.5 µM and 0.5 to 10 µM, respectively.

On to `O=C(NCCN1CCOCC1)Nc1nc2ccc(OCc3c(Cl)cccc3Cl)cc2s1` [Example 10, 1-{6-[(2,6-dichlorobenzyl)oxy]-1,3-benzothiazol-2-yl}-3-(2-morpholin-4-ylethyl)urea], for which the IC50 against c-MET is less than 0.1 µM; against RON, 0.5 to 10 µM; with MKN45 cells (setting [2]), 0.5 to 10 µM.

As to `CC(Oc1ccc2nc(NC(=O)NCCN3CCOCC3)sc2c1)c1c(Cl)cccc1Cl` (stereo not drawn) [Example 17, 1-{6-[1-(2,6-dichlorophenyl)ethoxy]-1,3-benzothiazol-2-yl}-3-(2-morpholin-4-ylethyl)urea], the IC50 is less than 0.1 µM at c-MET, less than 0.5 µM at RON and 0.5 to 10 µM in the experiment on MKN45 cells (setting [2]).
